From patent publication US20090118310A1, “Activated Cdc42-associated kinase (ACK) as a therapeutic target for Ras-induced cancer” (UNIVERSITY OF MEDICINE AND DENTISTRY OF NEW JERSEY, priority 2005, published 2009)
“Also recorded” adds a separate entry of the source.

Experiments:
[1] = molecular target: T1, ACK-1 kinase (GST-ACKD, amino acids 101-441) (Homo sapiens, UniProt Q07912); experiment: In vitro kinase assay of GST-ACKD with MBP as substrate; format: biochemical; conditions: FIG. 4C dose response, FIG. 4D inhibitors at 200 nmol/L
T1 construct: made in house; host or cells: Escherichia coli BL21 (pGEX-2TH vector)
Description: Escherichia coli BL21 cells transformed with pGEX-ACKD were grown at 30° C. to early logarithmic phase and protein expression was induced by adding 0.1 mmol/L isopropyl-L-thio-β-D-galactopyranoside. After 3 hours of incubation, cells were harvested, resuspended in lysis buffer [50 mmol/L Tris (pH 7.5), 0.73 mol/L sucrose, 5 mmol/L MgCl2, 0.5% (v/v) NP40], and disrupted by sonication. Cells were centrifuged at 10,000×g for 30 minutes at 4° C. The supernatant was applied to the glutathione-Sepharose column equilibrated with WED buffer [20 mmol/L Tris (pH 7.5), 2 mmol/L MgCl2, 1 mmol/L DTT] followed by washing with WED buffer. GST-ACKD was eluted with 5 mmol/L glutathione solution in 50 mmol/L Tris (pH 9.6). The eluate was dialyzed in WED buffer overnight and concentrated on a sucrose gradient. The expected size of the fusion protein (GST-ACKD) was confirmed by SDS-PAGE (data not shown), and the protein was used for kinase assays as described below.
The purified GST-ACKD (˜5 μg per reaction) was incubated in kinase reaction buffer [50 mmol/L HEPES-KOH (pH 7.2), 10 mmol/L magnesium acetate, 5 mmol/L DTT] containing 7.5 μg MBP, 100 μmol/L ATP, and 4 μCi [γ-^33P]ATP for 10 minutes at 30° C. Reactions were stopped by addition of 5× Laemmli SDS sample buffer. Proteins were separated by SDS-PAGE, and radioactivity incorporated into the substrate was quantified by using the Kodak Imaging Station 2000R. For kinase inhibition experiments, GST-ACKD was preincubated with individual inhibitors in kinase buffer or kinase buffer alone (control) before the addition of MBP following the same protocol as described above. Experiments were done in triplicate.
Several compounds were screened to examine their potency in inhibiting the kinase activity of ACK in vitro. […]
Different kinase inhibitors were added to the ACK-1 kinase reaction as described above in General Procedures. Phosphorylation of MBP was determined by SDS-PAGE and autoradiography. The level of MBP phosphorylation was determined by scanning MBP bands using Kodak Imaging Station 2000R and plotted as arbitrary units. […]

[2] = molecular target: T2, ACK-1 (Mus musculus, UniProt O54967); experiment: ACK-1 autophosphorylation in v-Ha-Ras-transformed cells (immunoprecipitation, anti-phosphotyrosine Western blot); format: cell-based; conditions: 25 μmol/L, 48 hours, FIG. 5A
T2 construct: endogenous in cells; host or cells: v-Ha-Ras-transformed NIH 3T3 cells (and parental NIH 3T3 in the siRNA experiment)
Description: For immunoprecipitation, cells (2×10^6 per sample) were lysed in a buffer containing 1% Triton X-100, 20 mmol/L HEPES (pH 7.4), 150 mmol/L NaCl, 10% glycerol, 1.5 mmol/L MgCl2, 1 mmol/L EGTA, 10 mmol/L sodium pyrophosphate, 0.2 mmol/L sodium orthovanadate, 50 mmol/L NaF, 0.5 mg/mL phenylmethylsulfonyl fluoride, and 0.5 μg/mL aprotinin. Each lysate was incubated with ACK-1 antibody (10 μg/sample) for 4 hours at 4° C. Protein A-Sepharose CL-4B (50 μL) was added to the lysate followed by additional incubation for 2 hours at 4° C. Sepharose beads were collected by centrifugation at 1,000×g for 5 minutes (Eppendorf microfuge). The pellets were washed thrice with lysis buffer using the same protocol. Protein bound to Sepharose beads was recovered in Laemmli SDS sample buffer. […]
To study the effects of ACK on cell proliferation, 2×10^4 cells per well were seeded into 24-well plates and cultured under standard cell culture conditions. […] Cell numbers were counted with a hemocytometer. […]
(§1) The effect of PD158780 and PD157432 on the phosphorylation of ACK-1 was investigated. v-Ha-Ras-transformed cells were cultured in DMEM containing 10% FCS. […] For growth inhibition studies, cells were trypsinized and counted every 24 hours. […]

[3] = tested on: v-Ha-Ras-transformed NIH 3T3 cells; experiment: Growth of v-Ha-Ras-transformed cells treated with kinase inhibitors (cell counting); format: cell-based; conditions: kinase inhibitor added after overnight culture; cells counted (every 24 hours or after 48 hours)
Description: To study the effects of ACK on cell proliferation, 2×10^4 cells per well were seeded into 24-well plates and cultured under standard cell culture conditions. After overnight culture, individual kinase inhibitors (at indicated concentration) or DMSO (control) were added to the culture. Cells were collected by trypsinization after 48 hours. Cell numbers were counted with a hemocytometer. To study ACK phosphorylation, cells were lysed with a buffer containing 1% Triton X-100, 20 mmol/L HEPES (pH 7.4), 150 mmol/L NaCl, 10% glycerol, 1.5 mmol/L MgCl2, 1 mmol/L EGTA, 10 mmol/L sodium pyrophosphate, 0.2 mmol/L sodium orthovanadate, 50 mmol/L NaF, 0.5 mg/mL phenylmethylsulfonyl fluoride, and 0.5 μg/mL aprotinin. Total protein (˜1 mg) was used for immunoprecipitation of ACK-1.
as §1, with “FCS. Cells were treated with solvent (DMSO), PD 158780 (25 μmol/L), or PD157432 (25 μmol/L) for 48 hours. Cells were incubated under standard cell culture conditions.” for “FCS.”
The effect of ST021169 and ST038325 on v-Ha-Ras-transformed NIH 3T3 cell growth was investigated. […] After 48 hours, the cells were trypsinized and counted with a hemocytometer. […]

T1 sequence (Q07912 38-378 H250G): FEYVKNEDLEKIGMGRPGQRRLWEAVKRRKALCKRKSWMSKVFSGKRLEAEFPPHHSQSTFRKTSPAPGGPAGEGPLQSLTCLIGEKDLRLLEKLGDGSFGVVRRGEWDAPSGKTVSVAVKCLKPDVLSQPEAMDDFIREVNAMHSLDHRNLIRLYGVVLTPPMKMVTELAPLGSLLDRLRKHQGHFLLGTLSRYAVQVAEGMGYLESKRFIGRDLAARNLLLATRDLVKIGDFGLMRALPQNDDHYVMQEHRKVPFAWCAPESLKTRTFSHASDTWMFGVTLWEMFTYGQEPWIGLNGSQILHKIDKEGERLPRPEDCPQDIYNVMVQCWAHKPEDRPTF
T2 sequence (O54967 whole entry): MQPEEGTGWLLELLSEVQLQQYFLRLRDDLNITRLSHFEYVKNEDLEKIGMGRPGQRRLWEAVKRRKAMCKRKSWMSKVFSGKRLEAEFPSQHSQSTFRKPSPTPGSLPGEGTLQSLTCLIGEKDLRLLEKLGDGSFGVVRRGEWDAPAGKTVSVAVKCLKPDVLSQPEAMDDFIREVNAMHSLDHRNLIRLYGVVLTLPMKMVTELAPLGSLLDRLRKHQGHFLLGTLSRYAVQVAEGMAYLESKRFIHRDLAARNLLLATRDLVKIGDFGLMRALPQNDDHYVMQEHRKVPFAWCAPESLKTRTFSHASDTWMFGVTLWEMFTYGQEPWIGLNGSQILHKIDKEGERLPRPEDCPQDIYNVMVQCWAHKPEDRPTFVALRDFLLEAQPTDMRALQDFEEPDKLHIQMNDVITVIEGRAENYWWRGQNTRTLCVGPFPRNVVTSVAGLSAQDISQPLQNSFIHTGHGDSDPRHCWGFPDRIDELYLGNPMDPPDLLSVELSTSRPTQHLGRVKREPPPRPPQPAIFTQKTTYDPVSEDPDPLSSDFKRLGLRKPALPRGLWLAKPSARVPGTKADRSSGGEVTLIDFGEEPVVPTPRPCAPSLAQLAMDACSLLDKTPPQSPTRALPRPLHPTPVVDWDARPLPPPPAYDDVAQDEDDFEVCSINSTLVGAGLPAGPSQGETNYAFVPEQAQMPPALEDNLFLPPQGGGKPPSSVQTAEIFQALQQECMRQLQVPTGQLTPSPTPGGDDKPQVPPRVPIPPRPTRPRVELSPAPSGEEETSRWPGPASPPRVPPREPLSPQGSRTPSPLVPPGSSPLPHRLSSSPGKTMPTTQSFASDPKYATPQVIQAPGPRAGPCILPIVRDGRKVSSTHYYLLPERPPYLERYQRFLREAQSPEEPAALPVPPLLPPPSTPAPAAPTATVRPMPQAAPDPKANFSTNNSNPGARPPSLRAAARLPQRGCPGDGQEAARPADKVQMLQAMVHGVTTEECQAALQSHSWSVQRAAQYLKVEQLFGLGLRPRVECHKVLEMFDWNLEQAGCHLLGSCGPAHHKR

`CNc1cc2c(Nc3cccc(Br)c3)ncnc2cn1` [PD158780] was tested. Which “inhibition of kinase activity of ACK (MBP phosphorylation)” value [1] did it give?
Its value is “inhibited ACK strongly and in a dose-dependent manner; also recorded: strongest inhibitory activity”.

And the “inhibition of ACK-1 autophosphorylation” value [2]?
The value was “inhibited ACK-1 autophosphorylation to a much stronger extent than did PD157432”.

What about the “inhibition of v-Ha-Ras-transformed NIH 3T3 cell growth” value [3] of the same compound?
Its value is “inhibited in a dose-dependent manner”.
